Reference: US11542316B2, “S-Arrestin peptides and therapeutic uses thereof” (APITOPE INTERNATIONAL NV, priority 2017, dated 2023)
“Also recorded” adds a separate entry of the source. Ends that are not written are not given here.

Tests used:
[1] = molecular target: T1, MHC II molecules present on dendritic cells (DC) (Homo sapiens, UniProt P01903+P01911, A100K/A102G/A103R/F55Y/I96L/K41T/P40S/Q125H/Q178H/Q39Y/R42S/S66N/T106N/T262R/W38E/Y61H); assay: In vivo presentation experiment, DR3tg mice; conditions: 100 μg peptide s.c., CD11c+ cells harvested after 2 hours, co-culture 48 hours
T1 construct: from tissue; host or cells: CD11c+ dendritic cells from spleens of DR3tg mice (genomic HLA-DRA and DRB1*0301 transgenes, no mouse MHC class II)
T1 sequence (P01903 26-254): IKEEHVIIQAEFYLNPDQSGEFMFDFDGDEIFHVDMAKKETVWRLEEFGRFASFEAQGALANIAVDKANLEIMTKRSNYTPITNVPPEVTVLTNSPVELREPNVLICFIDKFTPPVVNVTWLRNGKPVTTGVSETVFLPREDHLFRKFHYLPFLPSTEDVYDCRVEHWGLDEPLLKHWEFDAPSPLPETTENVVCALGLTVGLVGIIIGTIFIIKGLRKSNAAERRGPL
T1 sequence (P01911 30-266 with the stated changes): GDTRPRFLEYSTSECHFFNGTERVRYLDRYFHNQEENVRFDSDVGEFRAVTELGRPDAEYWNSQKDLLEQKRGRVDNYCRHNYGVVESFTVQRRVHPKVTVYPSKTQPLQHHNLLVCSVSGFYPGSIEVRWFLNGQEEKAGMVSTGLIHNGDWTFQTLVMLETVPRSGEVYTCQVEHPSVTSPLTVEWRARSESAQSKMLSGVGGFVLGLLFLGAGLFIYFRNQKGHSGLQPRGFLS
Source text: FIG. 14: In vivo presentation protocol. Mice are immunized with peptide/CFA and a T cell line is established. For this, ten days after immunization the LN and spleens are harvested and cultured with different concentrations of peptide; 2×10^6 cells/ml APC+1×10^6 cells/ml CD4^+ cells per well. At day 7 the cells are re-stimulated with fresh APC and the same concentrations of peptide. After 14 to 21 days, CD4^+ cells are isolated from these cultures by magnetic bead isolation. These CD4^+ cells are co-cultured with CD11c^+ (dendritic) cells isolated by magnetic bead isolation from spleens of mice s.c. injected with peptide 2 hours before. Control mice receive a s.c. injection of PBS. After 48 hours, supernatant is collected and cytokine response (IFN-γ) is measured. LN, lymph nodes; APC, Antigen presenting cell; s.c. subcutaneous.
FIG. 15: In vivo presentation of HIP-115 nested peptides in DR3 mice. DR3 mice were immunized with HIP-115/CFA and a T cell line was established. For this, ten days after immunization the LN and spleens were harvested and cultured with different concentrations of peptide (0.1-1-2.5 and 5 μg/ml); 2×10^6 cells/ml APC+1×10^6 cells/ml CD4^+ cells per well. At day 7 the cells were re-stimulated with fresh APC and the same concentrations of peptide. After 14 days, CD4^+ cells were isolated from these cultures by magnetic bead isolation. These CD4^+ cells were co-cultured with CD11c (dendritic) cells isolated by magnetic bead isolation from spleens of DR3 mice s.c. injected with peptides HIP-115NE3, HIP-115NE3-KKK or PBS 2 hours before. After 48 hours, supernatant was collected and IFN-γ production was measured by ELISA. Data are presented as the mean IFN-γ concentration±SEM (One-way ANOVA with Dunn's multiple comparison, * p<0.05, ** p<0.01). LN, lymph nodes; APC, Antigen presenting cell; s.c. subcutaneous.
FIG. 16: In vivo presentation of HIP-24 nested peptides in DR3 mice. DR3 mice were immunized with HIP-241125+HIP-24DG/CFA and a T cell line was established. For this, ten days after immunization the LN and spleens were harvested and cultured with different concentrations of peptide (0.3-1.2-3 and 6 μg/ml); 2×10^6 cells/ml APC+1×10^6 cells/ml CD4^+ cells per well. At day 7 the cells were re-stimulated with fresh APC and the same concentrations of peptide. After 14 days, CD4^+ cells were isolated from these cultures by magnetic bead isolation. […] After 48 hours, supernatant was collected and IFN-γ production was measured by ELISA. […]
FIG. 18: In vivo presentation of HIP-17GN nested peptides in DR3 mice. […] After 48 hours, supernatant was collected and IFN-γ production was measured by ELISA. […]

Solubility of peptides = format: physicochemical
Method: The solubility of potential apitopes from S—Ag are determined by visual observations and turbidity measurement by UV spectrophotometry at 280 nm. The solubility of the peptides can be modified by adding amino acids ‘GKK’ or ‘KKK’ (or similar) on both the C- and N-terminus of the sequence. Modifications that may be suitable are described in WO2014/072958 (which is hereby incorporated by reference).
For some of these peptides, the parental peptides were insoluble, and solubility is a critical parameter for them to work as a tolerogenic peptide. Several end-terminal modifications can be used and as example used here they were improved by addition of 3 lysines before and after the original peptide sequence (labelled as ‘-KKK’ versions).

Substance	picked up and presented by MHC II on dendritic cells to peptide-specific T cells (IFN-γ production) [1]	solubility (Solubility of peptides)
KKKVIFKKISRDKSVTIYLGKKK-NH2 [HIP-115NE3-KKK]	bound to the MHC II on DC in situ and presented to peptide-specific T cells	soluble
LPLLANNRERRGIA-NH2 [HIP-24HM3, LPLLANNRERRGIA]	presented by DC to T cells	soluble
KKKAFVEQVANVVLKKK-NH2 [HIP-9K1-KKK, KKKAFVEQVANVVLKKK]	–	soluble
KKKLTFRRDLYFSRVQVYKKK-NH2 [HIP-17J-KKK]	presented by DC to T cells; also recorded: A certain degree of activation	–
VIFKKISRDKSVTIYLG-NH2 [HIP-115NE3, VIFKKISRDKSVTIYLG]	not able to cause this activation	insoluble
LTKTLTLLPLLANNRERR-NH2 [HIP-24DG, LTKTLTLLPLLANNRERR]	–	soluble
